Measurements: patent publication US20090232838A1, “Ligands of melanocortin receptors” (priority 2005, published 2009)
Where two headings read alike, the source gives them in different places. One block for each molecule: values may come before it. Where a SMILES comes first, the peptide text is derived from it. Bridges are numbered along the chain shown (N, C = ends). [ ]: non-standard residue; d: D form. 2Nal = N[C@@H](Cc1ccc2ccccc2c1)C(=O)O; d2Nal = N[C@H](Cc1ccc2ccccc2c1)C(=O)O

How the values were obtained:
Type in all cases: cell-based
hMC5-R = target: T1, hMC5-R (Homo sapiens, UniProt P33032); experiment: cyclic AMP bioassay, hMC5-R
T1 construct: expressed in transfected cells; host or cells: CHO-K1
T1 sequence (P33032 whole entry): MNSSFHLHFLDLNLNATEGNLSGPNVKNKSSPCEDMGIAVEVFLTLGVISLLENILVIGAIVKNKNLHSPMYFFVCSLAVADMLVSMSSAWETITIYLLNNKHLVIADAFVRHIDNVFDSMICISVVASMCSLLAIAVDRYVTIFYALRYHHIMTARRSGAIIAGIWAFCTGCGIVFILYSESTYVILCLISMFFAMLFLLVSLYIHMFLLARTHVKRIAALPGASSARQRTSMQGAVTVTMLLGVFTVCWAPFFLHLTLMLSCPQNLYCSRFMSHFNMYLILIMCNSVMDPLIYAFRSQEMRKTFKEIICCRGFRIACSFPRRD

hMC3-R = target: T2, hMC3-R (Homo sapiens, UniProt P41968); experiment: cyclic AMP bioassay, hMC3-R
T2 construct: expressed in transfected cells; host or cells: CHO-K1
T2 sequence (P41968 whole entry): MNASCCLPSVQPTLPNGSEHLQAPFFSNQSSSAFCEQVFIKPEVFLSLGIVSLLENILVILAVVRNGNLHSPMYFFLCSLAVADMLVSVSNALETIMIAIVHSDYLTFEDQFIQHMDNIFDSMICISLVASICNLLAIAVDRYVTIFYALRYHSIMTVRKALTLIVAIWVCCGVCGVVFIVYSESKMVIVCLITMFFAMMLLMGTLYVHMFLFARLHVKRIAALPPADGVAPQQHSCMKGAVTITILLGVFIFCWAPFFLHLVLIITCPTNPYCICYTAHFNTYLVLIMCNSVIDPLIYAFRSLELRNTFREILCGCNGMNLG

hMC1-R = target: T3, hMC1-R (Homo sapiens, UniProt Q01726); experiment: cyclic AMP bioassay, hMC1-R
T3 construct: expressed in transfected cells; host or cells: CHO-K1
T3 sequence (Q01726 whole entry): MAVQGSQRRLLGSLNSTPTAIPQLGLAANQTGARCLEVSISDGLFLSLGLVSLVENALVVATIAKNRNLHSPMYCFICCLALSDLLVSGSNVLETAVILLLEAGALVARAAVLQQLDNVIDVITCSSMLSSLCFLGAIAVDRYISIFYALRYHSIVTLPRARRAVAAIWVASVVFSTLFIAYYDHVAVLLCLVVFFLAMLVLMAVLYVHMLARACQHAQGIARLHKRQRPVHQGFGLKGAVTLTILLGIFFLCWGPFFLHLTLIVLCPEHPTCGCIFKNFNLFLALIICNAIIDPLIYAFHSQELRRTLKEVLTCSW

hMC4-R = target: T4, hMC4-R (Homo sapiens, UniProt P32245); experiment: cyclic AMP bioassay, hMC4-R
T4 construct: expressed in transfected cells; host or cells: CHO-K1
T4 sequence (P32245 whole entry): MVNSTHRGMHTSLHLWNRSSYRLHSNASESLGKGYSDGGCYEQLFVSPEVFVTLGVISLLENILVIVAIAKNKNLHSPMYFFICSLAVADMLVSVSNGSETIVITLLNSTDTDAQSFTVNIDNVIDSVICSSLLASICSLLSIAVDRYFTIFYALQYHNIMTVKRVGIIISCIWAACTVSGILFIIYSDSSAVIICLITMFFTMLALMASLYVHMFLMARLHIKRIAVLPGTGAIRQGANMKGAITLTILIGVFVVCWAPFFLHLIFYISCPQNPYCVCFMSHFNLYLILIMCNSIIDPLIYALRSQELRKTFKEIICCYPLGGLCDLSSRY

[1] = Table 3A, cAMP in CHO-K1 cells, agonist, read-out: EC50 hMC5-R
[2] = Table 3A, cAMP in CHO-K1 cells, antagonist potency by Schild analysis, read-out: Kb hMC3-R
[3] = Table 3A, cAMP in CHO-K1 cells, agonist, read-out: EC50 hMC1-R
[4] = Table 3A, cAMP in CHO-K1 cells, antagonist potency by Schild analysis, read-out: Kb hMC4-R

EC50 (hMC5-R; [1]): 54.2 nM | Kb (hMC3-R; [2]): 13.7 nM | EC50 (hMC1-R; [3]): 12 nM | Kb (hMC4-R; [4]): 9.38 nM
SMILES: CC(=O)N[C@H]1CSSC[C@@H](C(=O)N2CCC[C@H]2C(=O)N2CCC[C@H]2C(=O)N[C@@H](CCCCN)C(=O)N[C@@H](CC(=O)O)C(=O)NCCC(=O)N[C@@H](Cc2ccc(O)cc2)C(=O)NCC(=O)N[C@@H](CCCNC(=N)N)C(=O)N[C@@H](CCC(N)=O)C(=O)N[C@@H](CCCCN)C(=O)N[C@@H](CCCCN)C(=O)N[C@@H](CCCNC(=N)N)C(=O)N[C@@H](CCCNC(=N)N)C(=O)N[C@@H](CCCNC(=N)N)C(=O)N[C@@H](CCCNC(=N)N)C(=O)N[C@@H](CCCNC(=N)N)C(N)=O)NC(=O)[C@H](C)NC(=O)[C@H](Cc2c[nH]c3ccccc23)NC(=O)[C@H](CCCNC(=N)N)NC(=O)[C@@H](Cc2ccc3ccccc3c2)NC(=O)[C@H](Cc2c[nH]cn2)NC(=O)[C@H](CCC(=O)O)NC1=O

SMILES: CCCC[C@H](NC(C)=O)C(=O)N[C@H]1CSSC[C@@H](C(=O)NCCC(=O)NCC(=O)N[C@@H](CCCNC(=N)N)C(=O)N[C@@H](CCCNC(=N)N)C(=O)N[C@@H](CCCNC(=N)N)C(=O)N[C@@H](CCCNC(=N)N)C(=O)N[C@@H](CCCNC(=N)N)C(=O)N[C@@H](CCC(N)=O)C(=O)N[C@@H](CCCNC(=N)N)C(=O)N[C@@H](CCCNC(=N)N)C(=O)N[C@@H](CCCNC(=N)N)C(N)=O)NC(=O)[C@H](Cc2c[nH]c3ccccc23)NC(=O)[C@H](CCCNC(=N)N)NC(=O)[C@@H](Cc2ccccc2)NC(=O)[C@H](Cc2c[nH]cn2)NC(=O)[C@@H](C)NC1=O
EC50 (hMC5-R): 2010 nM | EC50 (hMC3-R): 7.32 nM | EC50 (hMC1-R): 0.481 nM | EC50 (hMC4-R): 0.964 nM

SMILES: CC(=O)N[C@H]1CSSC[C@@H](C(=O)N2CCC[C@H]2C(=O)N2CCC[C@H]2C(=O)N[C@@H](CCCCN)C(=O)N[C@@H](CC(=O)O)C(=O)NCCC(=O)NCC(=O)N[C@@H](CCCNC(=N)N)C(=O)N[C@@H](CCCNC(=N)N)C(=O)N[C@@H](CCCCN)C(=O)N[C@@H](CCCNC(=N)N)C(=O)N[C@@H](CCCNC(=N)N)C(=O)N[C@@H](CCC(N)=O)C(=O)N[C@@H](CCCNC(=N)N)C(=O)N[C@@H](CCCNC(=N)N)C(=O)N[C@@H](CCCNC(=N)N)C(N)=O)NC(=O)[C@H](C)NC(=O)[C@H](Cc2cccc3ccccc23)NC(=O)[C@H](CCCNC(=N)N)NC(=O)[C@@H](Cc2ccc3ccccc3c2)NC(=O)[C@H](Cc2c[nH]cn2)NC(=O)[C@H](CCC(=O)O)NC1=O
EC50 (hMC5-R): 351 nM | Kb (hMC3-R): 101 nM | EC50 (hMC1-R): 26.6 nM | Kb (hMC4-R): 9.34 nM

SMILES: CC(=O)N[C@H]1CSSC[C@@H](C(=O)N2CCC[C@H]2C(=O)N2CCC[C@H]2C(=O)N[C@@H](CCCCN)C(=O)N[C@@H](CC(=O)O)C(=O)NCCC(=O)N[C@@H](CCCNC(=N)N)C(=O)N[C@@H](CCCNC(=N)N)C(=O)N[C@@H](CCCNC(=N)N)C(=O)N[C@@H](CCCNC(=N)N)C(=O)N[C@@H](CCCNC(=N)N)C(=O)N[C@@H](CCC(N)=O)C(=O)N[C@@H](CCCNC(=N)N)C(=O)N[C@@H](CCCNC(=N)N)C(=O)N[C@@H](CCCNC(=N)N)C(N)=O)NC(=O)[C@H](C)NC(=O)[C@H](Cc2cccc3ccccc23)NC(=O)[C@H](CCCNC(=N)N)NC(=O)[C@@H](Cc2ccc3ccccc3c2)NC(=O)[C@H](Cc2c[nH]cn2)NC(=O)[C@H](CCC(=O)O)NC1=O
EC50 (hMC5-R): 56.1 nM | Kb (hMC3-R): 46.5 nM | EC50 (hMC1-R): 36 nM | Kb (hMC4-R): 11.4 nM

SMILES: CC(=O)N[C@H]1CSSC[C@@H](C(=O)N2CCC[C@H]2C(=O)N2CCC[C@H]2C(=O)N[C@@H](CCCCN)C(=O)N[C@@H](CC(=O)O)C(=O)NCCC(=O)NCC(=O)N[C@@H](CCCNC(=N)N)C(=O)N[C@@H](CCCCN)C(=O)N[C@@H](CCCNC(=N)N)C(=O)N[C@@H](CCCNC(=N)N)C(=O)N[C@@H](CCCNC(=N)N)C(=O)N[C@@H](CCC(N)=O)C(=O)N[C@@H](CCCNC(=N)N)C(=O)N[C@@H](CCCNC(=N)N)C(=O)N[C@@H](CCCNC(=N)N)C(N)=O)NC(=O)[C@H](C)NC(=O)[C@H](Cc2cccc3ccccc23)NC(=O)[C@H](CCCNC(=N)N)NC(=O)[C@@H](Cc2ccc3ccccc3c2)NC(=O)[C@H](Cc2c[nH]cn2)NC(=O)[C@H](CCC(=O)O)NC1=O
EC50 (hMC5-R): 149 nM | Kb (hMC3-R): 181 nM | EC50 (hMC1-R): 45.5 nM | Kb (hMC4-R): 6.35 nM

SMILES: CC(=O)N[C@H]1CSSC[C@@H](C(=O)N2CCC[C@H]2C(=O)N2CCC[C@H]2C(=O)N[C@@H](CCCCN)C(=O)N[C@@H](CC(=O)O)C(N)=O)NC(=O)[C@H](C)NC(=O)[C@H](Cc2ccc3ccccc3c2)NC(=O)[C@H](CCCNC(=N)N)NC(=O)[C@@H](Cc2ccc3ccccc3c2)NC(=O)[C@H](Cc2c[nH]cn2)NC(=O)[C@H](CCC(=O)O)NC1=O [Ac-c(Cys-Glu-His-D-2-Nal-Arg-2-Nal-Ala-Cys)-Pro-Pro-Lys-Asp-NH2] (Ac-CEH[d2Nal]R[2Nal]ACPPKD-NH2; disulfide 1-8)
EC50 (hMC5-R): 66.9 nM | Kb (hMC3-R): 140 nM | EC50 (hMC1-R): 33.6 nM | Kb (hMC4-R): 12.2 nM

SMILES: CC(=O)N[C@H]1CSSC[C@@H](C(=O)N2CCC[C@H]2C(=O)N2CCC[C@H]2C(=O)N[C@@H](CCCCN)C(=O)N[C@@H](CC(=O)O)C(=O)NCCC(=O)N[C@@H](Cc2ccc(O)cc2)C(=O)NCC(=O)N[C@@H](CCCNC(=N)N)C(=O)N[C@@H](CCCCN)C(=O)N[C@@H](CCCCN)C(=O)N[C@@H](CCCNC(=N)N)C(=O)N[C@@H](CCCNC(=N)N)C(=O)N[C@@H](CCC(N)=O)C(=O)N[C@@H](CCCNC(=N)N)C(=O)N[C@@H](CCCNC(=N)N)C(=O)N[C@@H](CCCNC(=N)N)C(N)=O)NC(=O)[C@H](C)NC(=O)[C@H](Cc2c[nH]c3ccccc23)NC(=O)[C@H](CCCNC(=N)N)NC(=O)[C@@H](Cc2ccc3ccccc3c2)NC(=O)[C@H](Cc2c[nH]cn2)NC(=O)[C@H](CCC(=O)O)NC1=O
EC50 (hMC5-R; [1]): 38.2 nM | Kb (hMC3-R; [2]): 70 nM | EC50 (hMC1-R; [3]): 6.3 nM | Kb (hMC4-R; [4]): 1.66 nM

SMILES: CC(=O)N[C@H]1CSSC[C@@H](C(=O)N2CCC[C@H]2C(=O)N2CCC[C@H]2C(=O)N[C@@H](CCCCN)C(=O)N[C@@H](CC(=O)O)C(=O)NCCC(=O)N[C@@H](Cc2ccc(O)cc2)C(=O)NCC(=O)N[C@@H](CCCNC(=N)N)C(=O)N[C@@H](CCCCN)C(=O)N[C@@H](CCCCN)C(=O)N[C@@H](CCC(N)=O)C(=O)N[C@@H](CCCNC(=N)N)C(=O)N[C@@H](CCCNC(=N)N)C(=O)N[C@@H](CCCNC(=N)N)C(=O)N[C@@H](CCCNC(=N)N)C(=O)N[C@@H](CCCNC(=N)N)C(N)=O)NC(=O)[C@H](C)NC(=O)[C@H](Cc2c[nH]c3ccccc23)NC(=O)[C@H](CCCNC(=N)N)NC(=O)[C@@H](Cc2ccc3ccccc3c2)NC(=O)[C@H](Cc2c[nH]cn2)NC(=O)[C@H](CCC(=O)O)NC1=O
EC50 (hMC5-R; [1]): 46.2 nM | Kb (hMC3-R; [2]): 9.38 nM | EC50 (hMC1-R; [3]): 6.7 nM | Kb (hMC4-R; [4]): 11.7 nM

SMILES: CC(=O)N[C@H]1CSSC[C@@H](C(=O)N2CCC[C@H]2C(=O)N2CCC[C@H]2C(=O)N[C@@H](CCCCN)C(=O)N[C@@H](CC(=O)O)C(=O)NCCC(=O)N[C@@H](CCCNC(=N)N)C(=O)N[C@@H](CCCNC(=N)N)C(=O)N[C@@H](CCCCN)C(=O)N[C@@H](CCCNC(=N)N)C(=O)N[C@@H](CCCNC(=N)N)C(=O)N[C@@H](CCC(N)=O)C(=O)N[C@@H](CCCNC(=N)N)C(=O)N[C@@H](CCCNC(=N)N)C(=O)N[C@@H](CCCNC(=N)N)C(N)=O)NC(=O)[C@H](C)NC(=O)[C@H](Cc2ccc3ccccc3c2)NC(=O)[C@H](CCCNC(=N)N)NC(=O)[C@@H](Cc2ccc3ccccc3c2)NC(=O)[C@H](Cc2c[nH]cn2)NC(=O)[C@H](CCC(=O)O)NC1=O
EC50 (hMC5-R): 514 nM | Kb (hMC3-R): 10.6 nM | EC50 (hMC1-R): 88.2 nM | Kb (hMC4-R): 17.4 nM

SMILES: CC(=O)N[C@H]1CSSC[C@@H](C(=O)N2CCC[C@H]2C(=O)N2CCC[C@H]2C(=O)N[C@@H](CCCCN)C(=O)N[C@@H](CC(=O)O)C(=O)NCCC(=O)N[C@@H](CCCNC(=N)N)C(=O)N[C@@H](CCCNC(=N)N)C(=O)N[C@@H](CCCNC(=N)N)C(=O)N[C@@H](CCCNC(=N)N)C(=O)N[C@@H](CCCNC(=N)N)C(=O)N[C@@H](CCCNC(=N)N)C(=O)N[C@@H](CCC(N)=O)C(=O)N[C@@H](CCCNC(=N)N)C(=O)N[C@@H](CCCNC(=N)N)C(=O)N[C@@H](CCCNC(=N)N)C(N)=O)NC(=O)[C@H](C)NC(=O)[C@H](Cc2cccc3ccccc23)NC(=O)[C@H](CCCNC(=N)N)NC(=O)[C@@H](Cc2ccc3ccccc3c2)NC(=O)[C@H](Cc2c[nH]cn2)NC(=O)[C@H](CCC(=O)O)NC1=O
EC50 (hMC5-R): > 10000 nM | Kb (hMC3-R): 71 nM | EC50 (hMC1-R): 93 nM | Kb (hMC4-R): 15.9 nM

SMILES: CCCC[C@H](NC(C)=O)C(=O)N[C@H]1CC(=O)NCCCC[C@@H](C(=O)N2CCC[C@H]2C(=O)N2CCC[C@H]2C(=O)N[C@@H](CCCCN)C(=O)N[C@@H](CC(=O)O)C(=O)NCCOCCOCC(=O)N[C@@H](Cc2ccc(O)cc2)C(=O)NCC(=O)N[C@@H](CCCNC(=N)N)C(=O)N[C@@H](CCCCN)C(=O)N[C@@H](CCCCN)C(=O)N[C@@H](CCCNC(=N)N)C(=O)N[C@@H](CCCNC(=N)N)C(=O)N[C@@H](CCC(N)=O)C(=O)N[C@@H](CCCNC(=N)N)C(=O)N[C@@H](CCCNC(=N)N)C(=O)N[C@@H](CCCNC(=N)N)C(N)=O)NC(=O)[C@H](Cc2c[nH]c3ccccc23)NC(=O)[C@H](CCCNC(=N)N)NC(=O)[C@@H](Cc2ccc3ccccc3c2)NC(=O)[C@H](Cc2c[nH]cn2)NC1=O
EC50 (hMC5-R; [1]): 1.61 nM | Kb (hMC3-R; [2]): 19.4 nM | EC50 (hMC1-R; [3]): 3.65 nM | Kb (hMC4-R; [4]): 3.73 nM

SMILES: CCCC[C@H](NC(C)=O)C(=O)N[C@H]1CSSC[C@@H](C(=O)NCCOCCOCC(=O)NCCOCCOCC(=O)N[C@@H](Cc2ccc(O)cc2)C(=O)NCC(=O)N[C@@H](CCCNC(=N)N)C(=O)N[C@@H](CCCCN)C(=O)N[C@@H](CCCCN)C(=O)N[C@@H](CCCNC(=N)N)C(=O)N[C@@H](CCCNC(=N)N)C(=O)N[C@@H](CCC(N)=O)C(=O)N[C@@H](CCCNC(=N)N)C(=O)N[C@@H](CCCNC(=N)N)C(=O)N[C@@H](CCCNC(=N)N)C(N)=O)NC(=O)[C@H](Cc2c[nH]c3ccccc23)NC(=O)[C@H](CCCNC(=N)N)NC(=O)[C@@H](Cc2ccccc2)NC(=O)[C@H](Cc2c[nH]cn2)NC(=O)[C@@H](C)NC1=O
EC50 (hMC5-R): 147 nM | EC50 (hMC3-R): 4.56 nM | EC50 (hMC1-R): 4.7 nM | EC50 (hMC4-R): 0.634 nM
